Experimental data reported in publication PMC12677607, “Identification of a Pair of Linear or Cyclic Naturally Inspired Bifunctional Lipopeptide Antibiotics That Overcome Antimicrobial Resistance” (Advanced Science, 2025).
Values after ≈ are worked out from the molar mass of the structure shown. Bridge positions count the residues as written; N and C are the ends. Square brackets hold non-standard residues; d marks the D form. Peptide text beside a SMILES is read from it. * marks the point of attachment. Myristoyl = CCCCCCCCCCCCCC(=O)*; Orn = NCCC[C@H](N)C(=O)O; Dab = NCC[C@H](N)C(=O)O; Dap = NC[C@H](N)C(=O)O

How the values were obtained:
S. aureus USA300 [1] = assay: Raising resistant mutants by direct plating; assay type: cell-based
S. aureus USA300 [2] = assay: Scanning electron microscopy of treated cultures; assay type: cell-based; conditions: 4× the MIC, after 180 min of treatment
S. aureus USA300 [3] = assay: Resistance acquisition by serial passaging; assay type: cell-based; conditions: S. aureus USA300, sub-MIC levels, daily passage for 21 days, n = 2
Experimental: (§1) Overnight cultures S. aureus USA300 were diluted 10000‐fold in LB broth, and 100 µL of dilute cell suspension was added to 96‐well plates containing 100 µL serially diluted aquicidine C4, telomycin, and daptomycin (with 15 mM CaCl2). Overnight cultures K. pneumoniae CRKP5452 were diluted 5000‐fold in LB broth, and 100 µL of dilute cell suspension was added to 96‐well plates containing 100 µL serially diluted aquicidine L and colistin. After an incubation of 24 h at 37 °C, the MIC value was determined. […] The MIC value was recorded as described above, and the process was repeated daily for 21 days. Experiments were performed two independent times (n = 2).

E. coli DH5α = assay: Membrane component feeding assay; assay type: cell-based; conditions: feeding 2 to 128 µg mL^−1, E. coli DH5α, Figure 5e
Experimental: The effects of bacterial membrane components on aquicidine L's or aquicidine C4's anti‐bacterial activities were evaluated using E. coli DH5α or S. aureus USA300. […] All experiments were done in triplicate (n = 3) and repeated two independent times (n = 2).

[4] = system: Acinetobacter baumannii P53; assay: microbe, parasite or virus in culture; assay type: cell-based; conditions: Table S11; LB broth, 37 °C, 16 h, n = 2
In short: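 MIC = lowest peptide concentration with no visible growth; LB broth microdilution, n = 2. Inoculum: overnight culture diluted 5000× (S. aureus 10000×). Peptides serially diluted 2-fold, 64–0.125 µg mL^−1 in the broth added to cells.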

[5] = system: K. pneumoniae CRKP 5452 PhoQL348Q; assay: MIC against colistin-resistant mutant; assay type: cell-based
Experimental: All MIC assays were performed two independent times (n = 2) in 96‐well plates using a broth micro‐dilution method. The lowest concentration of that inhibited visible microbial growth was recorded as the MIC value.
For most of bacterial strains, overnight cultures were diluted 5000‐fold in LB broth. For E. faecium and S. aureus, overnight cultures were diluted 1000‐ and 10000‐fold in LB broth, respectively. 100 µL of diluted cells was mixed with 100 µL of LB broth containing each peptide ranging from 64 to 0.125 µg mL^−1 at 2‐fold serial dilutions.
as §1
Single‐nucleotide polymorphisms (SNPs) for telomycin‐, daptomycin‐ or colistin‐resistant mutants were identified using SNIPPY by mapping DNBSEQ‐seq reads to the reference genome of S. aureus USA300 or K. pneumoniae CRKP5452.

[6] = system: meropenem-resistant K. pneumoniae CRKP 5452; assay: Mouse peritonitis-sepsis model; assay type: in vivo; conditions: K. pneumoniae CRKP5452, neutropenic ICR mice, s.c. 1 h after infection and every 12 h up to 36 h, doses 12.5, 25, 50 mg kg^−1, n = 5
Experimental: (§2) Six‐week‐old female ICR mice were used in all experiments and housed in a temperature‐controlled room (25 °C) with 12‐h light/dark cycle and 30% relative humidity. Mice were observed twice daily for mortality and morbidity. Abnormal clinical signs were recorded if observed and totally monitored for five days. The detailed methods for the mouse peritonitis‐sepsis model were as follows.
(§3) Meropenem‐resistant A. baumannii 1104008 or K. pneumoniae CRKP 5452 was cultured in LB broth at 37 °C fro 16 h and diluted with 5% type II porcine stomach mucin and 0.9% NaCl. All mice were rendered […] via intraperitoneal injection of cyclophosphamide at 150 mg/kg on day‐4 and day‐1 before infection. A. baumannii or K. pneumoniae cell cultures were diluted to provide a challenge inoculum of 5.0 × 10^7 CFU in 0.5 mL and then administered into each mouse via intraperitoneal injection. 25 mice were randomly grouped into five per cohort (n = 5) and each cohort was given a single dose of either vehicle (20% solutol), aquicidine L at 12.5, 25, or 50 mg kg^−1, and colistin at 12.5 mg kg^−1 1 h after infection via subcutaneous injection and repeated every 12 h up to 36 h (totally four injections).

[7] = system: meropenem-resistant A. baumannii 1104008; assay: Mouse peritonitis-sepsis model; assay type: in vivo; conditions: A. baumannii 1104008, neutropenic ICR mice, s.c. 1 h after infection and every 12 h up to 36 h, doses 12.5, 25, 50 mg kg^−1, n = 5
Experimental: as §2, §3

K. pneumoniae CRKP5452 = assay: Resistance acquisition by serial passaging; assay type: cell-based; conditions: K. pneumoniae CRKP5452, sub-MIC levels, daily passage for 21 days, n = 2
Experimental: as §1

CCCCCCCCCCCCCC(=O)N[C@@H](CN)C(=O)N[C@H](C(=O)N[C@@H](CC(C)C)C(=O)N[C@H]1COC(=O)[C@H](Cc2ccccc2)NC(=O)[C@H](CC(N)=O)NC(=O)[C@H](CCCN)NC(=O)[C@H]([C@@H](C)CC)NC(=O)[C@H](Cc2ccccc2)NC(=O)[C@H](CN)NC(=O)[C@H](CCN)NC1=O)[C@@H](C)O [synAQU5-C4] (Myristoyl-[Dap]TLS[Dab][Dap]FI[Orn]NF; ester 4-C)
increase in MIC of colonies from direct plating on antibiotic-containing solid media (S. aureus USA300 [1]): did not show more than a one‐fold increase in MIC | scanning electron microscopy, cell lysis (S. aureus USA300 [2]): lysed the majority of cells | increase of MIC during serial passaging (S. aureus USA300 [3]): no higher than twofold

CCCCCCCCCCCCCC(=O)N[C@@H](CN)C(=O)N[C@H](C(=O)N[C@@H](CC(C)C)C(=O)N[C@@H](CO)C(=O)N[C@@H](CCN)C(=O)N[C@@H](CN)C(=O)N[C@@H](Cc1ccccc1)C(=O)N[C@H](C(=O)N[C@@H](CCCN)C(=O)N[C@@H](CC(N)=O)C(=O)N[C@@H](Cc1ccccc1)C(=O)O)[C@@H](C)CC)[C@@H](C)O [synAQU5-L] (Myristoyl-[Dap]TLS[Dab][Dap]FI[Orn]NF-OH)
resistant mutants by direct plating (E. coli): failed to identify E. coli resistant mutants | inhibition of antibacterial activity by LPS and PE (E. coli DH5α): stronger dose‐dependent inhibition | MIC Acinetobacter baumannii P53 [4]: 8 µg/mL (≈ 5.56 µM) | antibacterial activity (MIC) K. pneumoniae CRKP 5452 PhoQL348Q ([5]; Figure S127a, colistin-resistant mutant from serial passaging): 16 µg/mL | increase in MIC against resistant mutant compared to wild type ([5]; K. pneumoniae CRKP5452 PhoQ^L348Q vs wild type): 4 fold | minimal dose required for 100% survival [6]: 50 mg/kg | minimal dose required for 100% survival [7]: 50 mg/kg | increase of MIC during serial passaging (K. pneumoniae CRKP5452): no higher than two‐fold
